Data as given in PubChem BioAssay (NCI).
Where “and” joins values, the source holds several entries; their conditions need not be identical. Identical values can stand only once.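 A five-concentration, 48-hour dose response in 96-well plates underlies each endpoint, interpolated linearly between surrounding concentrations. At the GI50, growth is halved. The concentration for full growth arrest is given as TGI.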

Columns and labels:
Assay in all cases: growth of human tumour cells (NCI), 48 h
T-47D breast = test system: T-47D breast
HT29 colon = test system: HT29 colon
RXF 393 renal = test system: RXF 393 renal
SK-OV-3 ovarian = test system: SK-OV-3 ovarian
UACC-257 melanoma = test system: UACC-257 melanoma
OVCAR-4 ovarian = test system: OVCAR-4 ovarian
MDA-MB-231 breast = test system: MDA-MB-231 breast
NCI-H23 lung = test system: NCI-H23 lung
KM12 colon = test system: KM12 colon
HOP-62 NSCLC = test system: HOP-62 NSCLC

Row | SMILES | TGI (T-47D breast) [µM] | TGI (HT29 colon) [µM] | TGI (RXF 393 renal) [µM] | TGI (SK-OV-3 ovarian) [µM] | TGI (UACC-257 melanoma) | TGI (OVCAR-4 ovarian) [µM] | TGI (MDA-MB-231 breast) | TGI (NCI-H23 lung) [µM] | TGI (KM12 colon) | TGI (HOP-62 NSCLC) [µM] | GI50 (T-47D breast) [µM] | GI50 (HT29 colon) [µM] | GI50 (RXF 393 renal) [µM] | GI50 (SK-OV-3 ovarian) [µM] | GI50 (UACC-257 melanoma) [µM] | GI50 (OVCAR-4 ovarian) [µM] | GI50 (MDA-MB-231 breast) [µM] | GI50 (NCI-H23 lung) [µM] | GI50 (KM12 colon) [µM] | GI50 (HOP-62 NSCLC) [µM]
1 | C/C(=N\N=C(/[Se])N1CC2CCC(CC2)C1)c1ccccn1 | 3.05 | 2.6 | 0.359 | 2.09 | 0.569 µM | 2.56 | 2.65 µM | 1.57 | 1.54 µM | 1.92 |  |  |  |  |  |  |  |  |  | 
2 | COC(=O)[C@]12CC[C@@H](C)[C@H](C)[C@@H]1C1=CC[C@@H]3[C@@]4(C)C=C(O)C(=O)[C@@]5(C)COC(=C54)C[C@@]3(C)[C@]1(C)CC2 | 20.7 | 25.9 | 24.9 | 32.5 | 18.8 µM | 23.5 | 29.7 µM | 18.2 | 29.4 µM | 35 | 3.66 | 10.5 | 7.09 | 14.6 | 4.32 | 8.32 | 11.9 | 4.19 | 11.9 | 15.4
3 | Cc1ccc(SC2=CC(=O)c3nc4ccccc4c4ccnc2c34)cc1 | 47.2 | > 100 | 50 | > 100 | 77.7 µM | 32.6 | 60 µM | > 73.9 | 47.5 µM | > 100 | 24.3 | 38 | 21.9 | > 100 | 24.7 | 17.4 | 23.4 | 24.7 | 20.9 | 97.9
4 | O=C(Nc1ccc(Cl)cc1)c1cc(-c2ccc(Cl)cc2)c2sc(=O)[nH]c2n1 | 5.46 | 6.29 | 7.42 | 7.47 | 4.69 µM | 9.98 | 3.56 µM | 6.85 | 10.3 µM | 8.85 | 0.584 | 2.13 | 2.77 | 2.08 | 1.19 | 2.02 | 1.66 | 1.24 | 1.58 | 2.58
5 | COC(=O)C1(F)C(=O)NC(=O)NC1O (stereo not given) | > 100 | > 100 | > 100 | > 100 | > 100 µM | > 100 | > 100 µM | > 100 | > 100 µM | > 100 |  |  |  |  |  |  |  |  |  | 
6 | O=C(O)c1cc(N=Cc2ccccc2O)cc(C(=O)O)c1 | > 100 | > 100 | > 100 | > 100 | > 100 µM | > 100 | > 100 µM | > 100 | > 100 µM | > 100 |  |  |  |  |  |  |  |  |  | 
7 | COc1ccccc1/C=N\N=C(N/N=C/c1ccccc1OC)N/N=C/c1ccccc1OC | 9.69 | > 100 | > 100 | 8.32 | 10.2 µM | > 100 | 9.11 µM | > 100 | 16.2 µM | 13.4 | 3.27 | 3.87 | 5.01 | 2.68 | 3.12 | 3.43 | 3.2 | 3.91 | 2.96 | 2.91
8 | COc1cccc2c1C(=O)c1c(O)c3c(c(O)c1C2=O)C[C@@](O)(C(=O)CO)C[C@@H]3OC1C[C@H](N)[C@H](O)[C@H](C)O1 (stereo not given in full) | 1.06 |  | 0.25 | 10.9 | 1.8 µM | 2.9 | 5.41 µM | 0.234 | 6.27 µM | 0.323 | 0.0409 | 0.0958 | 0.0751 | 0.107 | 0.102 | 0.133 | 0.144 | 0.0484 | 0.135 | 0.033
9 | COc1cc2c[n+](C)c3c4ccccc4ccc3c2cc1OC (tested in a mixture with another compound) | 63.3 | 32.4 | 54.4 | 51.2 | 6.15 µM and 49 µM | 43.2 | 9.2 µM and 25.6 µM | 31.7 | 2.5 µM and 13.2 µM | 49.7 | 4.68 | 3.94 |  |  | 2.11 | 4.04 | 10.3 |  | 0.544 | 6.41
10 | Cc1cc(C)c(O)c(CN(C)Cc2cc(Cl)cc(Cl)c2O)c1 | 15.2 | 17.4 | 23.6 | 33 | 12.1 µM | 10.6 | 12.8 µM | 17.3 | 17.7 µM | 18.3 | 4.07 | 5.1 | 7.34 | 6.48 | 3.14 | 2.62 | 2.97 | 3.91 | 5.31 | 5.46
11 | N#CCc1ncc(-c2ccc(C(F)(F)F)cc2)c(NC2CCCCCC2)n1 | > 10 | > 10 | > 10 | > 10 | > 10 µM | > 10 | > 10 µM | > 10 | > 10 µM | > 10 | > 10 | > 10 | > 10 | > 10 | > 10 | > 10 | > 10 | > 10 | > 10 | > 10
12 | c1ccc(-c2nc(-c3ccccc3)c(-c3ccccc3)[nH]2)cc1 | > 100 | > 100 | > 100 | > 100 | > 100 µM | > 100 | > 100 µM | > 100 | > 100 µM | > 100 |  |  |  |  |  |  |  |  |  | 
13 | C=C1C(=O)O[C@H]2[C@H]1CC/C(COC(=O)CSCC(=O)OC/C1=C/CC[C@@]3(C)O[C@H]3[C@H]3OC(=O)C(=C)[C@@H]3CC1)=C\CC[C@@]1(C)O[C@@H]21 | 5.72 | 2.56 | 1.52 | 29.1 | 4.3 µM | 4.6 | 3.34 µM | 7.07 | 8.75 µM | 20.2 | 2.16 | 1.22 | 0.416 | 15.6 | 1.76 | 1.79 | 1.63 | 2.26 | 2.59 | 5.25
14 | CO[C@@H]1/C=C(C)/C=C/[C@@H](C)/C=C(\C)C(=O)OC(/C(C)=C/C=C(\C)CNC(=O)[C@H](CO)NC=O)[C@@H](C)/C=C/C=C/[C@H](OC)CC/C=C(C)/C=C/C1 (stereo not given in full) | 16.8 | > 50 | 0.808 | 9.48 | 0.0365 µM | > 50 |  | 0.266 | 8 µM | < 0.005 | 0.0243 | < 0.005 | 0.285 | 0.332 | 0.0238 | < 0.005 | 0.292 | < 0.005 | < 0.005 | < 0.005
15 | O=C(N/N=C/c1ccccc1O)C(=O)Nc1ccc(F)cc1 | > 100 | > 100 | > 100 | > 100 | 15 µM | > 100 | > 100 µM | > 100 | > 100 µM | > 100 | 6.63 | 8.86 | 9.93 | 10.3 | 2.85 | 2.53 | 3.23 | 7.31 | 6.97 | 10.7
